{"source": "ChEMBL document CHEMBL3044815", "about": "“Inhibitory effects on nuclear factor B of the Vietnamese freshwater cyanobacteria” (Med Chem Res, 2011)", "key": {"[1]": {"system": "HeLa", "experiment": "Cytotoxicity against Homo sapiens (human) HeLa cells after 48 hr by MTT assay", "format": "functional, cell-based"}, "[2]": {"experiment": "Inhibition of TNFalpha-induced NF-kappaB activity (unknown origin) expressed in HeLa cells cotreated with compound and 10 ng/ml TNF-alpha for 24 hr by reporter gene assay", "format": "cell-based, Homo sapiens"}, "[3]": {"conditions": "Homo sapiens, HeLa, 24 h, read-out: IC50; call rule not given here"}}}
{"smiles": "CC1=C(O)C(=O)C=C2C1=CC=C1[C@@]2(C)CC[C@@]2(C)[C@@H]3C[C@](C)(C(=O)O)CC[C@]3(C)CC[C@]12C", "note": "[CELASTROL]", "values": [{"measurement": "Activity", "setting": "[1]", "value": "Dose-dependent effect"}, {"measurement": "IC50", "setting": "[2]; [3]", "value": 0.72, "unit": "µg/mL"}]}
{"smiles": "CC(C)[C@@H](C)/C=C/[C@@H](C)[C@H]1CC[C@H]2C3=CC=C4C[C@@H](O)CC[C@]4(C)[C@H]3CC[C@]12C", "note": "[ERGOSTEROL]", "values": [{"measurement": "Activity", "setting": "[1]", "value": "Dose-dependent effect"}, {"measurement": "IC50", "setting": "[2]; [3]", "value": 0.91, "unit": "µg/mL"}]}
{"smiles": "CC[C@H](CC[C@@H](C)[C@H]1CC[C@H]2[C@@H]3CC=C4C[C@@H](O)CC[C@]4(C)[C@H]3CC[C@]12C)C(C)C", "note": "[BETA-SITOSTEROL]", "values": [{"measurement": "Activity", "setting": "[1]", "value": "Dose-dependent effect"}, {"measurement": "IC50", "setting": "[2]; hela", "value": "Not Active"}]}
{"smiles": "CC[C@H](/C=C/[C@@H](C)[C@H]1CC[C@H]2[C@@H]3CC=C4C[C@@H](O)CC[C@]4(C)[C@H]3CC[C@]12C)C(C)C", "note": "[STIGMASTEROL]", "values": [{"measurement": "Activity", "setting": "[1]", "value": "Dose-dependent effect"}, {"measurement": "IC50", "setting": "[2]; hela", "value": "Not Active"}]}
